The values below come from patent US20040191926A1 (priority 2001, published 2004).

What all share (format): biochemical
In one assay the test system is MKP3. Briefly: Phosphatase panel, pNPP assay. To be noted: at 10 μM.
A further assay concerns the target T1, SHP2 (Homo sapiens, UniProt Q06124).
T1 construct: the catalytic domains of SHP1 and SHP2 were expressed and purified as (His)6-fusion proteins; (His)6; made in house
T1 sequence (Q06124 247-517 limits assumed): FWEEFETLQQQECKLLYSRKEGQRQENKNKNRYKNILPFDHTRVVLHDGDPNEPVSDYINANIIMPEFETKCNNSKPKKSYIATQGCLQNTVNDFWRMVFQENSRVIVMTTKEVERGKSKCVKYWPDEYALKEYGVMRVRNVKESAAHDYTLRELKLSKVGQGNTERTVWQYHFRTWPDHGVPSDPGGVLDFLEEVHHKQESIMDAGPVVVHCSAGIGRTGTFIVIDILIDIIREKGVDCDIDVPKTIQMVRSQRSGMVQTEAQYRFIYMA
Description: Phosphatase panel, pNPP assay. To be noted: 2 mM pNPP; read-out: Inhibition Potency, IC50.

For the next assay, the target named is T2, LAR (Homo sapiens, UniProt P10586).
T2 construct: The intracellular fragment of PTPa, LAR and CD45 containing both of the PTPase domains was cleaved off the fusion protein; GST (cleaved yes); made in house
T2 sequence (P10586 1285-1907 limits assumed): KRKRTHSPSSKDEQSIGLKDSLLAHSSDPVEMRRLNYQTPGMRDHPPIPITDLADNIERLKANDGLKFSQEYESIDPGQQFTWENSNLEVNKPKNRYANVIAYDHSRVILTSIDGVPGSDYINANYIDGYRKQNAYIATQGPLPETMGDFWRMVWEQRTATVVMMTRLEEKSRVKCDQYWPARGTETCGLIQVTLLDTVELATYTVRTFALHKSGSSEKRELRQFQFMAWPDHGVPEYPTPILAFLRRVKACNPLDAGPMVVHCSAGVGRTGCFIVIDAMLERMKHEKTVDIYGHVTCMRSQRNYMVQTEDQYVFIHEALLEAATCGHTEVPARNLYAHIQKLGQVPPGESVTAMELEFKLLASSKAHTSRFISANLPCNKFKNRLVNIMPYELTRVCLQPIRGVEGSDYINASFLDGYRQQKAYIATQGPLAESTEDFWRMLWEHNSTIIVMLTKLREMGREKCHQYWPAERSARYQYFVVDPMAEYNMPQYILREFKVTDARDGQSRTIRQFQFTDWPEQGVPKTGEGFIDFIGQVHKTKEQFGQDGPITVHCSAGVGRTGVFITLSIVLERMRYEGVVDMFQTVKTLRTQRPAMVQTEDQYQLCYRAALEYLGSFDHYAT
Description: Phosphatase panel, pNPP assay. To be noted: 2 mM pNPP; read-out: Inhibition Potency, IC50.

In the next assay the target is T3, PTP1B (Homo sapiens, UniProt P18031).
T3 construct: PTP1B (residues 1-321) (22); made in house; host or cells: E. coli
T3 sequence (P18031 1-321): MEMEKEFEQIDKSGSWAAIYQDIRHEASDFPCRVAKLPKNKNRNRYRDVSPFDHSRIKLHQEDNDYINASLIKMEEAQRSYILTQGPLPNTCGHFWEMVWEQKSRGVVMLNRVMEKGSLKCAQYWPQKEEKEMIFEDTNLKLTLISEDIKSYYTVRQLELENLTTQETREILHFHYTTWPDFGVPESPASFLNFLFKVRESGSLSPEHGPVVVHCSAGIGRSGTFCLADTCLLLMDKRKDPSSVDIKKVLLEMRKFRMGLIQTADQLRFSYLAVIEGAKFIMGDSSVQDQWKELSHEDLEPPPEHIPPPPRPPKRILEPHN
Briefly: PTPase activity assay with pNPP substrate.

In the next assay the target is T4, VHR (Homo sapiens, UniProt P51452).
T4 construct: made in house; host or cells: E. coli
Briefly: Phosphatase panel, pNPP assay. To be noted: at 10 μM.

The target of the next assay is T5, Stp1 (Schizosaccharomyces pombe, UniProt P41893).
T5 construct: made in house; host or cells: E. coli
T5 sequence (P41893 1-156): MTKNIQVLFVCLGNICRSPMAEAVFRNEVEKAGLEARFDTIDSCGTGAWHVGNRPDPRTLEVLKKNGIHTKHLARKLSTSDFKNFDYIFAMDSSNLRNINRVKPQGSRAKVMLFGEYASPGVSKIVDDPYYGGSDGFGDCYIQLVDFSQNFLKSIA
Description: Phosphatase panel, pNPP assay. To be noted: at 10 μM.

The target of a further assay is T6, PP2Cα (Homo sapiens, UniProt P35813).
T6 sequence (P35813 1-382): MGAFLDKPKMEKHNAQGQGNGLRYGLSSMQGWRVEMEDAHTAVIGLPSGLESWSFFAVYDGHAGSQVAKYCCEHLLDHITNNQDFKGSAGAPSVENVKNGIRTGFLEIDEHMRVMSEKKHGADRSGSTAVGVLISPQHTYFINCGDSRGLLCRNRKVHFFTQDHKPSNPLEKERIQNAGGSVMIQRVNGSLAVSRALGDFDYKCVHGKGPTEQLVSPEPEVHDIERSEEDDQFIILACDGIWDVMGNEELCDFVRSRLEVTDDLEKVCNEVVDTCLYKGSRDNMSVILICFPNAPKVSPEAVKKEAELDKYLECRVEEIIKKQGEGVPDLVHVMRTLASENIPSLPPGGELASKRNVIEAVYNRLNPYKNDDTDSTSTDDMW
Briefly: Phosphatase panel, pNPP assay. To be noted: at 10 μM.

The target of a further assay is T7, HePTP (Homo sapiens, UniProt P35236).
T7 construct: (His)6; made in house
T7 sequence (P35236 1-360): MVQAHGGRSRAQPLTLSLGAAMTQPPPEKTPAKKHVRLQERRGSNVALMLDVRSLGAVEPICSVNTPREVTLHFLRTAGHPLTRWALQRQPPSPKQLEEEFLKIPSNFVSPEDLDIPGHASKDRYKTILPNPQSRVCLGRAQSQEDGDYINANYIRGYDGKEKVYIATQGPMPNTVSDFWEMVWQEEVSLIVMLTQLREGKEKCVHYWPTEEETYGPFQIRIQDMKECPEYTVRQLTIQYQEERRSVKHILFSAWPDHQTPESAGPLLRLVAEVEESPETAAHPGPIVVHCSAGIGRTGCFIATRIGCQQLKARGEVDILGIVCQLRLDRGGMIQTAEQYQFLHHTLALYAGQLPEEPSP
Description: Phosphatase panel, pNPP assay. To be noted: at 10 μM.

T4 sequence (P51452 whole entry, species assumed): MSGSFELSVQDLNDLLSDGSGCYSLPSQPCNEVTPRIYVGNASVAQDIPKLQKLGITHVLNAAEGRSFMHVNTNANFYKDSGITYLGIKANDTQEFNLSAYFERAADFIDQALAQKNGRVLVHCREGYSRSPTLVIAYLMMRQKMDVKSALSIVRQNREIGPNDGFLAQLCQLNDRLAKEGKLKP

A word on the IC50: it is the midpoint of a concentration-inhibition curve. For `NC(=O)C(Cc1ccc(C(F)(F)P(=O)(O)O)cc1)NC(=O)C(CC(=O)O)NC(=O)Cc1ccc(C(F)(F)P(=O)(O)O)cc1` (stereo not drawn) [Compound 40], the “Inhibition Potency” value in the assay on MKP3, at VHR, at Stp1, at PP2Cα and at HePTP was “No inhibition at 10 μM” each time. The IC50 came to 10 µM at SHP2 and 72 µM at LAR. Moreover, the “preference for PTP1B versus nearly all phosphatases examined” value on PTP1B (panel of Table 2) was “greater than three orders of magnitude”. Besides, the mode of inhibition entry on PTP1B (with respect to the substrate pNPP) was “competitive”.
